# Like-named read-outs stand apart in the source and are kept apart here. Square brackets hold non-standard residues; d marks the D form. Peptide text beside a SMILES is read from it.
# Experiments:
# [1] = tested on: ET-1-induced hindpaw flinching; assay: Blockade of ET-1-induced hindpaw flinching; type: in vivo, rat; details: for effect on ET-1 induced hindpaw flinching: antagonist 3 mM epineurial, 20, 10 and 0 min prior to ET-1 400 μM; for significance of difference from ET-1 alone in hindpaw flinching (FIG. 3): antagonist 3 mM, 20, 10 and 0 min prior to ET-1 400 μM
# Description: (§1) Surgical Procedures. Adult male Sprague Dawley rats (175-225 g) were anesthetized with an intermediate-onset, short-acting volatile anesthetic (Sevaflurane, Abbott Laboratories, North Chicago, Ill.). After shaving of the hair over the left or right flank and incision of the skin, blunt dissection was made through the biceps femoris, the sciatic nerve exposed by careful microdissection away from the surrounding connective tissue, and gently elevated by insertion of a small curved hemostat placed beneath it. Following drug administration, as described below, the biceps femoris was closed with a single silk suture, and the skin closed with surgical staples.
# (§2) Drug administration. The following drugs were applied epineurially: 1) 40-800 μM endothelin-1 (ET-1) (synthetic, 98% pure peptide content, American Peptides Co., Sunnyvale, Calif.); 2) the selective endothelin-A receptor antagonist, BQ-123 (American Peptides Co.; Sunnyvale, Calif.) at 3 mM; 3) the selective endothelin-B receptor antagonist, BQ-788 (American Peptides Co.; Sunnyvale, Calif.) at 3 mM; and 400 μM epinephrine (American Regent Laboratories, Inc., Shirley, N.Y.).
# (§3) All drugs were dissolved in phosphate buffered saline (PBS, pH=7.4), and applied in 40 μl volumes to the epineurial surface of the exposed sciatic nerve (n=10 rats/condition). The total time for each drug application was 3-4 min. BQ-123 and BQ-788 were applied in 3 stages: 20 min prior to, 10 min prior to and 30 sec before ET-1 application. PBS was administered to control animals. Excess drug or PBS solution was absorbed by cotton gauze placed at the edge of the exposed nerve.
# Morphine was administered systemically immediately before anesthesia (10 mg/kg, ip). Naloxone was administered systemically 20 min after the completion of ET-1 application (2 mg/kg, ip).
# (§4) Behavioral evaluation. […] Behavioral measurements were then performed with animals freely moving on a flat surface enclosed by an inverted large Plexiglas cage. The total number of ipsilateral and contralateral spontaneous hindpaw flinches (operationally defined as complete lifting of the hindpaw off the testing surface) were counted for consecutive 5 minute periods for a total 60 minute observation period. The total duration of hindpaw lifting and time spent exploring were also recorded.
# [2] = tested on: normal rats; details: cyclophosphamide treatment, FIGS. 11A and B
# Method: For these experiments only, different groups of treated animals were tested (alternating fashion) on each test day to limit the amount of blood drawn.
# [3] = tested on: circulating leukocytes; details: for Mean number of leukocytes: cyclophosphamide 100 mg/kg
# Description: Complete blood counts were serially determined on all animals receiving treatments.
# [4] = tested on: CCI rats; assay: Thermal hyperalgesia (hindpaw withdrawal latency) after sciatic nerve CCI; type: in vivo, rat
# Method: (§5) CCI surgery. The sciatic nerve of a rat was exposed after blunt dissection of the biceps femoris. Four chromic gut ligatures (4-0) were placed around a […] section of sciatic nerve in the mid-thigh region. The ligatures were applied so that they constricted the diameter of the nerve just enough to impede circulation through the superficial vasculature (as visualized under an operating microscope at 40×). Sham-operated rats received an identical exposure of the left sciatic nerve without CCI. A coding system blinded the investigators to the nature of the surgery performed on individual rats.
# Dexamethasone inhibits CCI-induced pain sensitivity. […] Thermal hyperalgesia was defined as a reduction in the latency to hindpaw withdrawal during a thermal stimulus applied to the plantar surface. […] Presumably, chemotactic signals overwhelmed the effects of DEX by 10 days to account for differences from baseline and between hindpaws at this timepoint (FIG. 8B).
# [5] = tested on: sciatic nerve in rats with a chronic constriction injury; assay: Leukocytic profiles in sciatic nerve sections after CCI; type: in vivo, rat
# Method: as §5
# Histology. To compare the extent and type of cellular inflammation around the peripheral nerve due to CCI between DEX- and saline-treated rats, the ligated sciatic nerve was processed for histological analysis. At 3, 5, 7, and 10 days post-CCI, animals were euthanized with 100 mg/kg intraperitoneal sodium pentobarbital, and then transcardially perfused first with 50 ml of cold 0.9% NaCl, 1 ml/g body weight of 4% paraformaldehyde in 0.01 M phosphate buffered saline, pH 7.4 (PBS). A 2-3 cm section of sciatic nerve, or a 1 cm section of L5 and L6 spinal nerves, which included material at the ligation site, as well as that just proximal and distal to ligation, was placed in 0.01 M PBS, 4% paraformaldehyde to post-fix for 2 hours. Tissue was then embedded in paraffin, cut in 10-30 μm sections on a vibratome, and placed on glass slides. Slides were deparaffinized and then hydrated in distilled water prior to staining in freshly filtered Harris' hematoxylin for 6-15 min. After washing in running tap water for 2-5 min, sections were differentiated in 1% acid alcohol, washed briefly in tap water, and then placed in weak ammonia water until sections are bright blue. The sections were then washed thoroughly in running tap water, transferred to 80% ethanol, and then counterstained in eosin-phloxine solution prior to dehydration and mounting with Permount.
# Quantitation of leukocytes in nerve sections. To detect leukocytes in injured peripheral nerve, both cellular and […] were used. To be included in the leukocyte cell count, leukocytes had to 1) have a nucleus which was clearly visible and characteristic of an infiltrating macrophage (bean-shaped nucleus), neutrophil (polymorphic nucleus) or lymphocyte (dense nucleus that fills the cytoplasm); 2) have a “foamy” macrophage appearance typical of a myelin-ingesting phagocytes; and 3) be present within the endoneurial space. Cells present within vascular spaces or containing nuclei that could not be clearly differentiated from activated Schwann cells, fibroblasts or endothelial cells were not counted.
# [6] = tested on: rat sciatic nerve; assay: Epineurial application of drug to rat sciatic nerve, spontaneous hindpaw flinching; type: in vivo
# Description: as §1, §2, §3
# In experiments involving repeated administration of ET-1, animals were re-anesthetized 75-80 min after surgery (time point after which no further hindpaw flinching was observed, as described below), and 400 μM ET-1 was applied in the same volume, as described above. Behavioral evaluation was performed, as described below, for an additional 60 min.
# as §4
# Data Analysis. The peak frequency of hindpaw flinching, effects at 10 min post-drug administration, and area-under-the-curve (without approximation) from 0-60 min were all used to describe response-concentration functions.
# [7] = tested on: E1A cells; assay: Microfluorometry (Fura-2) of intracellular calcium in E1A cells; type: cell-based, rat
# Method: Microfluorometry in E1A cells. E1A cells (retrovirally-transformed rat dorsal root ganglion cells) were grown as a monolayer on poly-L-lysine coated coverslips in Dulbecco's modified eagle media supplemented with 10% fetal bovine serum at 37° C. in a humified atmosphere (5% CO2−95% air). Cells were used 48-72 hours after plating, at a confluence of 75 to 90%. The concentration of intracellular calcium was determined by dual excitation microfluorometry, using the calcium sensitive dye Fura-2 (Grynkiewicz, et.al., J. Biol. Chem. 260: 3440-3450, 1985). E1A cells were washed once with D-PBS (with Ca^++) and then incubated for 30 min at room temperature in D-PBS (with Ca^++) containing 7.5 μM Fura-2/AM and 0.00125% (wt/vol) pluronic-DMSO. The cells were then washed twice in D-PBS (with Ca^++) and incubated for an additional 30 minutes to allow cleavage of the Fura-2/AM to the active Fura-2.
# Experiments were conducted with the coverslips in a perfusion chamber of 0.4 ml, with a constant flow rate of 4 ml/min. Each coverslip was equilibrated in D-PBS for 2 min prior to beginning an experiment. […]
# Microfluorometry was performed with an inverted epifluoroscence microscope connected to a light source which provided two alternating wavelengths (Photon Technology International Deltascan). […] Background fluorescence was subtracted from each trial.
# [8] = naloxone 2 mg/kg ip, 20 min after ET-1
compound,measurement,setting,value
CC(C)C[C@@H]1NC(=O)[C@@H](C(C)C)NC(=O)[C@@H]2CCCN2C(=O)[C@@H](CC(=O)O)NC(=O)[C@@H](Cc2c[nH]c3ccccc23)NC1=O [BQ-123] (cyclo(L[dW][dD]P[dV])),effect on ET-1 induced hindpaw flinching,[1],completely blocked
same,significance of difference from ET-1 alone in hindpaw flinching (FIG. 3),[1],significant at every time point after 5 min
CCCC[C@@H](NC(=O)[C@@H](Cc1cn(C(=O)OC)c2ccccc12)NC(=O)[C@H](CC(C)(C)C)NC(=O)N1[C@H](C)CCC[C@@H]1C)C(=O)O [BQ-788],effect on ET-1 induced hindpaw flinching,[1],reduced hindpaw flinching significantly only at the 40 and 45 min timepoints
same,significance of difference from ET-1 alone in hindpaw flinching (FIG. 3),[1],significant at 45 and 50 min
"O=P1(N(CCCl)CCCl)NCCCO1 (centres unmarked) [Cyclophosphamide, cyclophosphamide]",analgesic effect with respect to thermal pain stimulation in normal animals,[2],no analgesic effects
same,effect on circulating leukocyte numbers,"[3]; 100 mg/kg on alternate days×3 days, pre-operatively",markedly reduced
same,Mean number of leukocytes,[3]; 1 day,0.4 ± 0.1 10^3/ml
same,Mean number of leukocytes,[3]; 3 days,1.0 ± 0.3 10^3/ml
same,Mean number of leukocytes,[3]; 5 days,0.5 ± 0.4 10^3/ml
same,Mean number of leukocytes,[3]; 8 days,4.6 ± .6 10^3/ml
same,Mean number of leukocytes,[3]; 10 days,7.3 ± 1.8 10^3/ml
same,Mean number of leukocytes,[3]; Baseline,9.2 ± 0.7 10^3/ml
same,Total white blood cell counts,"[3]; CYCLO-treated CCI rats, normal rats approximately 9×10^3",< 1000 µL⁻¹
same,effect on hyperalgesia response in CCI-treated rats,"[4]; CYCLO 100 mg/kg alternate days×3 prior to CCI, until leukocyte counts returned toward normal 10 days post-surgery",blocked the hyperalgesia response
"C[C@@H]1C[C@H]2[C@@H]3CCC4=CC(=O)C=C[C@]4(C)[C@@]3(F)[C@@H](O)C[C@]2(C)[C@@]1(O)C(=O)CO [DEX, Dexamethasone]",period post-CCI with differences from baseline and contralateral hindpaw eliminated,[4]; DEX 1.5 mg/kg i.p. daily,3 to 7 days
same,Number of leukocytic profiles in sciatic nerve,"[5]; 3 days post-CCI, six high-power fields (0.238 mm^2), mean ± S.D.",4.2 ± 0.92
same,Number of leukocytic profiles in sciatic nerve,"[5]; 5 days post-CCI, six high-power fields, n = 1",12.8
same,Number of leukocytic profiles in sciatic nerve,"[5]; 7 days post-CCI, six high-power fields, mean ± S.D.",23.3 ± 26.9
same,Number of leukocytic profiles in sciatic nerve,"[5]; 10 days post-CCI, six high-power fields, mean ± S.D.",25.7 ± .9
C=CCN1CC[C@]23c4c5ccc(O)c4O[C@H]2C(=O)CC[C@@]3(O)[C@H]1C5 [Naloxone],duration of reversal of the effect of morphine,[1]; [8],approximately 10 min
same,reversal of the effect of morphine on ET-1-induced flinching,[1]; [8],rapidly reversed the effect of morphine
CNC[C@H](O)c1ccc(O)c(O)c1 [epinephrine],hindpaw flinching after epinephrine applied to sciatic nerve,"[6]; 400 μM, 60 min observation period",no evidence of hindpaw flinching
CN1CC[C@]23c4c5ccc(O)c4O[C@H]2[C@@H](O)C=C[C@H]3[C@H]1C5 [morphine],effect on flinching induced by ET-1,"[1]; morphine 10 mg/kg ip immediately before anesthesia, ET-1 400 μM",completely blocked
endothelin-1 [ET-1],intracellular Ca++ level reached after ET-1,"[7]; 400 μl pulse of 13.5 μM ET-1, resting level 50-100 nM",~500 nM
same,Fura-2 fluorescence during ET-1 administration,"[7]; E1A cells, FIG. 7","large, rapid, and transient increase"
same,time of peak of flinching behavior and postural changes,[6]; 400 μM ET-1,≤ 30 min
same,"repetitive, spontaneous hindpaw flinching","[6]; 400 μM ET-1, 40 μl epineurial, 10-60 min post-administration, vs PBS",increased
same,effect at high concentration on hindpaw flinching,[6]; 800 μM,apparent inhibitory effect
same,concentration giving maximum frequency of hindpaw flinching,[6]; 40-800 μM tested,400 µM
same,EC50,"[6]; 10 minutes post ET-1 administration, FIG. 4B, read-out: concentration of half-maximal effect on hindpaw flinching",300 µM
same,hindpaw flinching and postural changes after application onto or into muscles surrounding sciatic nerve,"[6]; same concentration of ET-1, muscle not nerve",neither increased hindpaw flinching nor postural changes
same,hindpaw flinching after second (repeat) treatment,"[6]; second 400 μM ET-1, 15-20 min after first 60 min testing period",did not produce hindpaw flinching that was significantly different from controls
